# Test results published in patent US20250147039A1, “Compounds for complexation of rare earth elements and/or s-, p-, d- block metals, their coordination compounds, peptide conjugates, method of their preparation and use thereof” (USTAV ORGANICKE CHEMIE A BIOCHEMIE AV CR V.V.I., priority 2021, published 2025).
# Columns and labels:
# [1] = Formation of 1,5-cz-[M(Lig)] from Lig and M^III ions (metal dependent click-zip) (Charts 4, 5); type: physicochemical; conditions: MOPS/NaOH buffer pH 7.0; for conversion to 1,5-cz-[M(Lig)], Sc^III / conversion to 1,5-cz-[M(Lig)], Y^III: TD728, TD827 in 50% i-PrOH; for conversion to 1,5-cz-[M(Lig)], Y^III: TD714 sum of two diastereoisomers
# [2] = Formation of 1,5-cz-[Ln(Lig)] from Lig and Ln^III ions (metal dependent click-zip), MOPS/NaOH buffer pH 7.0, analytical HPLC (Charts 1, 2); conditions: MOPS/NaOH buffer pH 7.0
smiles,measurement,setting,value
CC(C)(C#Cc1cccc(CN2CCN(CC(=O)O)CCN(Cc3cccc(CN=[N+]=[N-])n3)CCN(CC(=O)O)CC2)n1)NC(=O)OC(C)(C)C [TD1105],"conversion to 1,5-cz-[Ln(Lig)] with hydrolysed group in the side chain, Sc^III",[1]; 1 week at 80° C.,60%
same,"conversion to 1,5-cz-[Ln(Lig)] with hydrolysed group in the side chain, Y^III",[1]; 1 week at 80° C.,87%
same,"conversion to 1,5-cz-[M(Lig)], Sc^III",[1]; 1 week at 80° C.,0%
same,"conversion to 1,5-cz-[M(Lig)], Y^III",[1]; 1 week at 80° C.,0%
same,"conversion to 1,5-cz-[Ln(Lig)] with hydrolysed group in the side chain, Sc^III",[1]; 1 hour at 80° C.,0%
same,"conversion to 1,5-cz-[Ln(Lig)] with hydrolysed group in the side chain, Y^III",[1]; 1 hour at 80° C.,1%
same,"conversion to 1,5-cz-[M(Lig)], Sc^III",[1]; 1 hour at 80° C.,0%
same,"conversion to 1,5-cz-[M(Lig)], Y^III",[1]; 1 hour at 80° C.,2%
same,"conversion to 1,5-cz-[Ln(Lig)] with hydrolysed group in the side chain, Ce^III",[2]; after 1 week at 80° C.,8%
same,"conversion to 1,5-cz-[Ln(Lig)], Ce^III",[2]; after 1 week at 80° C.,0%
same,"conversion to 1,5-cz-[Ln(Lig)] with hydrolysed group in the side chain, Ce^III",[2]; after 1 hour at 80° C.,0%
same,"conversion to 1,5-cz-[Ln(Lig)], Ce^III",[2]; after 1 hour at 80° C.,0%
same,"conversion to 1,5-cz-[Ln(Lig)] with hydrolysed group in the side chain, Dy^III",[2]; after 1 week at 80° C.,82%
same,"conversion to 1,5-cz-[Ln(Lig)], Dy^III",[2]; after 1 week at 80° C.,0%
same,"conversion to 1,5-cz-[Ln(Lig)] with hydrolysed group in the side chain, Dy^III",[2]; after 1 hour at 80° C.,0%
same,"conversion to 1,5-cz-[Ln(Lig)], Dy^III",[2]; after 1 hour at 80° C.,2%
same,"conversion to 1,5-cz-[Ln(Lig)] with hydrolysed group in the side chain, Er^III",[2]; after 1 week at 80° C.,92%
same,"conversion to 1,5-cz-[Ln(Lig)], Er^III",[2]; after 1 week at 80° C.,1%
same,"conversion to 1,5-cz-[Ln(Lig)] with hydrolysed group in the side chain, Er^III",[2]; after 1 hour at 80° C.,2%
same,"conversion to 1,5-cz-[Ln(Lig)], Er^III",[2]; after 1 hour at 80° C.,4%
same,"conversion to 1,5-cz-[Ln(Lig)] with hydrolysed group in the side chain, Eu^III",[2]; after 1 week at 80° C.,49%
same,"conversion to 1,5-cz-[Ln(Lig)], Eu^III",[2]; after 1 week at 80° C.,1%
same,"conversion to 1,5-cz-[Ln(Lig)] with hydrolysed group in the side chain, Eu^III",[2]; after 1 hour at 80° C.,0%
same,"conversion to 1,5-cz-[Ln(Lig)], Eu^III",[2]; after 1 hour at 80° C.,1%
same,"conversion to 1,5-cz-[Ln(Lig)] with hydrolysed group in the side chain, Gd^III",[2]; after 1 week at 80° C.,57%
same,"conversion to 1,5-cz-[Ln(Lig)], Gd^III",[2]; after 1 week at 80° C.,2%
same,"conversion to 1,5-cz-[Ln(Lig)] with hydrolysed group in the side chain, Gd^III",[2]; after 1 hour at 80° C.,0%
same,"conversion to 1,5-cz-[Ln(Lig)], Gd^III",[2]; after 1 hour at 80° C.,1%
same,"conversion to 1,5-cz-[Ln(Lig)] with hydrolysed group in the side chain, Ho^III",[2]; after 1 week at 80° C.,87%
same,"conversion to 1,5-cz-[Ln(Lig)], Ho^III",[2]; after 1 week at 80° C.,1%
same,"conversion to 1,5-cz-[Ln(Lig)] with hydrolysed group in the side chain, Ho^III",[2]; after 1 hour at 80° C.,1%
same,"conversion to 1,5-cz-[Ln(Lig)], Ho^III",[2]; after 1 hour at 80° C.,3%
same,"conversion to 1,5-cz-[Ln(Lig)] with hydrolysed group in the side chain, La^III",[2]; after 1 week at 80° C.,11%
same,"conversion to 1,5-cz-[Ln(Lig)], La^III",[2]; after 1 week at 80° C.,0%
same,"conversion to 1,5-cz-[Ln(Lig)] with hydrolysed group in the side chain, La^III",[2]; after 1 hour at 80° C.,0%
same,"conversion to 1,5-cz-[Ln(Lig)], La^III",[2]; after 1 hour at 80° C.,0%
same,"conversion to 1,5-cz-[Ln(Lig)] with hydrolysed group in the side chain, Lu^III",[2]; after 1 week at 80° C.,98%
same,"conversion to 1,5-cz-[Ln(Lig)], Lu^III",[2]; after 1 week at 80° C.,1%
same,"conversion to 1,5-cz-[Ln(Lig)] with hydrolysed group in the side chain, Lu^III",[2]; after 1 hour at 80° C.,9%
same,"conversion to 1,5-cz-[Ln(Lig)], Lu^III",[2]; after 1 hour at 80° C.,8%
same,"conversion to 1,5-cz-[Ln(Lig)] with hydrolysed group in the side chain, Nd^III",[2]; after 1 week at 80° C.,23%
same,"conversion to 1,5-cz-[Ln(Lig)], Nd^III",[2]; after 1 week at 80° C.,0%
same,"conversion to 1,5-cz-[Ln(Lig)] with hydrolysed group in the side chain, Nd^III",[2]; after 1 hour at 80° C.,0%
same,"conversion to 1,5-cz-[Ln(Lig)], Nd^III",[2]; after 1 hour at 80° C.,1%
same,"conversion to 1,5-cz-[Ln(Lig)] with hydrolysed group in the side chain, Pr^III",[2]; after 1 week at 80° C.,21%
same,"conversion to 1,5-cz-[Ln(Lig)], Pr^III",[2]; after 1 week at 80° C.,0%
same,"conversion to 1,5-cz-[Ln(Lig)] with hydrolysed group in the side chain, Pr^III",[2]; after 1 hour at 80° C.,0%
same,"conversion to 1,5-cz-[Ln(Lig)], Pr^III",[2]; after 1 hour at 80° C.,0%
same,"conversion to 1,5-cz-[Ln(Lig)] with hydrolysed group in the side chain, Sm^III",[2]; after 1 week at 80° C.,44%
same,"conversion to 1,5-cz-[Ln(Lig)], Sm^III",[2]; after 1 week at 80° C.,1%
same,"conversion to 1,5-cz-[Ln(Lig)] with hydrolysed group in the side chain, Sm^III",[2]; after 1 hour at 80° C.,0%
same,"conversion to 1,5-cz-[Ln(Lig)], Sm^III",[2]; after 1 hour at 80° C.,1%
same,"conversion to 1,5-cz-[Ln(Lig)] with hydrolysed group in the side chain, Tb^III",[2]; after 1 week at 80° C.,74%
same,"conversion to 1,5-cz-[Ln(Lig)], Tb^III",[2]; after 1 week at 80° C.,1%
same,"conversion to 1,5-cz-[Ln(Lig)] with hydrolysed group in the side chain, Tb^III",[2]; after 1 hour at 80° C.,0%
same,"conversion to 1,5-cz-[Ln(Lig)], Tb^III",[2]; after 1 hour at 80° C.,2%
same,"conversion to 1,5-cz-[Ln(Lig)] with hydrolysed group in the side chain, Tm^III",[2]; after 1 week at 80° C.,94%
same,"conversion to 1,5-cz-[Ln(Lig)], Tm^III",[2]; after 1 week at 80° C.,1%
same,"conversion to 1,5-cz-[Ln(Lig)] with hydrolysed group in the side chain, Tm^III",[2]; after 1 hour at 80° C.,3%
same,"conversion to 1,5-cz-[Ln(Lig)], Tm^III",[2]; after 1 hour at 80° C.,5%
same,"conversion to 1,5-cz-[Ln(Lig)] with hydrolysed group in the side chain, Yb^III",[2]; after 1 week at 80° C.,97%
same,"conversion to 1,5-cz-[Ln(Lig)], Yb^III",[2]; after 1 week at 80° C.,1%
same,"conversion to 1,5-cz-[Ln(Lig)] with hydrolysed group in the side chain, Yb^III",[2]; after 1 hour at 80° C.,5%
same,"conversion to 1,5-cz-[Ln(Lig)], Yb^III",[2]; after 1 hour at 80° C.,7%
[N-]=[N+]=NCc1cccc(CN2CCN(CC(=O)O)CCN(Cc3cccc(C#CC4CCNCC4)n3)CCN(CC(=O)O)CC2)n1 [TD1127],"conversion to 1,5-cz-[M(Lig)], Sc^III",[1]; 1 week at 80° C.,29%
same,"conversion to 1,5-cz-[M(Lig)], Y^III",[1]; 1 week at 80° C.,83%
same,"conversion to 1,5-cz-[M(Lig)], Sc^III",[1]; 1 hour at 80° C.,0%
same,"conversion to 1,5-cz-[M(Lig)], Y^III",[1]; 1 hour at 80° C.,2%
same,"conversion to 1,5-cz-[Ln(Lig)], Ce^III",[2]; after 1 week at 80° C.,7%
same,"conversion to 1,5-cz-[Ln(Lig)], Ce^III",[2]; after 1 hour at 80° C.,0%
same,"conversion to 1,5-cz-[Ln(Lig)], Dy^III",[2]; after 1 week at 80° C.,80%
same,"conversion to 1,5-cz-[Ln(Lig)], Dy^III",[2]; after 1 hour at 80° C.,2%
same,"conversion to 1,5-cz-[Ln(Lig)], Er^III",[2]; after 1 week at 80° C.,91%
same,"conversion to 1,5-cz-[Ln(Lig)], Er^III",[2]; after 1 hour at 80° C.,4%
same,"conversion to 1,5-cz-[Ln(Lig)], Eu^III",[2]; after 1 week at 80° C.,53%
same,"conversion to 1,5-cz-[Ln(Lig)], Eu^III",[2]; after 1 hour at 80° C.,1%
same,"conversion to 1,5-cz-[Ln(Lig)], Gd^III",[2]; after 1 week at 80° C.,56%
same,"conversion to 1,5-cz-[Ln(Lig)], Gd^III",[2]; after 1 hour at 80° C.,1%
same,"conversion to 1,5-cz-[Ln(Lig)], Ho^III",[2]; after 1 week at 80° C.,86%
same,"conversion to 1,5-cz-[Ln(Lig)], Ho^III",[2]; after 1 hour at 80° C.,3%
same,"conversion to 1,5-cz-[Ln(Lig)], La^III",[2]; after 1 week at 80° C.,18%
same,"conversion to 1,5-cz-[Ln(Lig)], La^III",[2]; after 1 hour at 80° C.,0%
same,"conversion to 1,5-cz-[Ln(Lig)], Lu^III",[2]; after 1 week at 80° C.,97%
same,"conversion to 1,5-cz-[Ln(Lig)], Lu^III",[2]; after 1 hour at 80° C.,13%
same,"conversion to 1,5-cz-[Ln(Lig)], Nd^III",[2]; after 1 week at 80° C.,25%
same,"conversion to 1,5-cz-[Ln(Lig)], Nd^III",[2]; after 1 hour at 80° C.,0%
same,"conversion to 1,5-cz-[Ln(Lig)], Pr^III",[2]; after 1 week at 80° C.,15%
same,"conversion to 1,5-cz-[Ln(Lig)], Pr^III",[2]; after 1 hour at 80° C.,0%
same,"conversion to 1,5-cz-[Ln(Lig)], Sm^III",[2]; after 1 week at 80° C.,46%
same,"conversion to 1,5-cz-[Ln(Lig)], Sm^III",[2]; after 1 hour at 80° C.,0%
same,"conversion to 1,5-cz-[Ln(Lig)], Tb^III",[2]; after 1 week at 80° C.,72%
same,"conversion to 1,5-cz-[Ln(Lig)], Tb^III",[2]; after 1 hour at 80° C.,1%
same,"conversion to 1,5-cz-[Ln(Lig)], Tm^III",[2]; after 1 week at 80° C.,93%
same,"conversion to 1,5-cz-[Ln(Lig)], Tm^III",[2]; after 1 hour at 80° C.,7%
same,"conversion to 1,5-cz-[Ln(Lig)], Yb^III",[2]; after 1 week at 80° C.,95%
same,"conversion to 1,5-cz-[Ln(Lig)], Yb^III",[2]; after 1 hour at 80° C.,10%
